In US20150141336A1, “Pancreatic Peptide Compounds and Use” (Novo Nordisk A/S, priority 2012, published 2015):
Numbered stars: 1 amine (or outer) side, 2 acyl side, 3 side chain; on linkers, the order of the positions; unused ones are H or OH. Side chains are listed from the residue outwards. Peptide text beside a SMILES is read from it. * marks the point of attachment. C18 diacid = O=C(O)CCCCCCCCCCCCCCCCC(=O)*; γGlu = O=C(O)[C@H](CCC(=O)[*:2])N[*:1]; AEEA = NCCOCCOCC(=O)O

Assay: Assay (II) PK i.v. minipig, in vivo half-life
Set-up: species or system Göttingen mini-pigs
Settings: male, Göttingen, minipig, iv, Half-life minipig, Assay (II)
Experimental: An assay useful for measuring the pharmacokinetic (PK) profile of the PP peptide is the following mini-pig PK assay.
Five male Göttingen mini-pigs weighing approximately 18 to 22 kg from Ellegaard Göttingen Minipigs NS, Denmark are included in the study. The mini-pigs have two central venous catheters inserted which are used for intra venous (i.v.) dosing and blood sampling. The test compound is dissolved in 50 mM K2HPO4, 0.05% tween 80, pH=8.0 to a concentration of 180 nmol/ml. For comparison a control compound, such as human PP(1-36), may be administered. The pigs are dosed with 6 nmol test compound/kg body weight. Blood samples are taken at the following time points: pre-dose, 30 minutes, 1, 2, 4, 8, 24, 48, 72, 96, 120, 168 and 240 hours post dosing. The blood samples were collected into test tubes containing EDTA buffer for stabilization and kept on ice for max. 20 minutes before centrifugation. The centrifugation procedure to separate plasma may be: 4° C., approx. 2500 g for 10 minutes. Plasma is collected and immediately transferred to Micronic tubes stored at −20° C. until assayed.
The test compounds were assayed in plasma by Turbulent Flow Chromatography coupled to Liquid Chromatography with subsequent Tandem Mass Spectrometric Detection (TFC/LC/MS/MS). Positive mode ionization and Multiple Reaction Monitoring (MRM) of a multiple protonated species fragmented to a singly charged ion was employed for selectivity. The selectivity of the method allows multiple compounds to be quantified in one sample.
The concentrations of the test compound in samples of unknown concentration were calculated using the peak area as a function of amount. Calibration graphs based on plasma samples spiked with the analyte were constructed by regression analysis. Typical dynamic range for standard assay was 1-2000 nmol/I. The method performance was assured by co-assaying quality control (QC) samples in duplicate at three concentration levels.
Stock and working solutions of analytes were prepared in plasma and incubated by 37° C. for 1 hour.
Sample Preparation: 40.0 μl EDTA-plasma was added 160 μl 50% methanol, 1% formic acid, then vortexed and centrifuged at 16457 g at 4° C. for 20 minutes. The supernatant was transferred to a 96 well plate, plates incubated with 0.4% BSA, 37° C. for ½ hour. Injection volume was 25 μl.
The analysis was carried out on a Sciex API 3000 mass spectrometer (MDS/Sciex, Concord, ON, Canada) using a TurbolonSpray interface. The TFC/LC system consisted of two Flux Rheos 2000 quaternary pumps, a Cohesive VIM module (Cohesive Technologies, Franklin, Mass., USA) and a CTC LC/PAL auto sampler (CTC Analytics, Zingen, Switzerland). The centrifuge employed was a HettichMikro 22R (A. Hettich, Tuttlingen, Germany). For sample clean up a TurboFlow C8 column (0.5×50 mm) (Cohesive Technologies/Thermofisher) was used and the LC separation was done on a Proteo 4 μm column (2.0×50 mm) (Phenomenex, Torrance, Calif., USA). Eluents were isocratic and gradient combinations of methanol, acetonitril, Milli-Q water and formic acid.
Non-compartmental analysis (NCA): Plasma concentration-time profiles are analyzed by non-compartmental pharmacokinetics analysis (NCA) using WinNonlin Professional 5.0 (Pharsight Inc., Mountain View, Calif., USA). NCA is performed using the individual plasma concentration-time profiles from each animal.
`CC[C@H](C)[C@H](NC(=O)[C@H](Cc1ccc(O)cc1)NC(=O)[C@H](CCCNC(=N)N)NC(=O)[C@H](CCCCNC(=O)COCCOCCNC(=O)COCCOCCNC(=O)CC[C@H](NC(=O)CCCCCCCCCCCCCCCCC(=O)O)C(=O)O)NC(=O)[C@H](CC(C)C)NC(=O)[C@H](CC(=O)O)NC(=O)[C@H](C)NC(=O)[C@H](C)NC(=O)[C@H](Cc1ccc(O)cc1)NC(=O)[C@H](CCC(N)=O)NC(=O)[C@H](C)NC(=O)[C@H](CCSC)NC(=O)[C@H](CCC(N)=O)NC(=O)[C@H](CCC(=O)O)NC(=O)[C@@H]1CCCN1C(=O)[C@@H](NC(=O)[C@H](C)NC(=O)[C@H](CC(N)=O)NC(=O)[C@H](CC(=O)O)NC(=O)CNC(=O)[C@@H]1CCCN1C(=O)[C@H](Cc1ccc(O)cc1)NC(=O)[C@@H](NC(=O)[C@@H]1CCCN1C(=O)[C@H](CCC(=O)O)NC(=O)[C@@H](N)CC(C)C)C(C)C)[C@@H](C)O)C(=O)N[C@@H](CC(N)=O)C(=O)N[C@@H](CCSC)C(=O)N[C@@H](CC(C)C)C(=O)N[C@H](C(=O)N[C@@H](CCCNC(=N)N)C(=O)N1CCC[C@H]1C(=O)N[C@@H](CCCNC(=N)N)C(=O)N[C@@H](Cc1ccc(O)cc1)C(N)=O)[C@@H](C)O` [Compound AQ] (H-LEPVYPGDNATPEQMAQYAADLK([AEEA-AEEA-γGlu-C18 diacid])RYINMLTRPRY-NH2; N-terminus and C-terminus assumed) gave a half-life of 48 h. Work on `CC[C@H](C)[C@H](NC(=O)[C@H](Cc1ccc(O)cc1)NC(=O)[C@H](CCCNC(=N)N)NC(=O)[C@H](CCCNC(=N)N)NC(=O)[C@H](CC(C)C)NC(=O)[C@H](CC(=O)O)NC(=O)[C@H](C)NC(=O)[C@H](C)NC(=O)[C@H](Cc1ccc(O)cc1)NC(=O)[C@H](CCC(N)=O)NC(=O)[C@H](C)NC(=O)[C@H](CCSC)NC(=O)[C@H](CCC(N)=O)NC(=O)[C@H](CCC(=O)O)NC(=O)[C@@H]1CCCN1C(=O)[C@@H](NC(=O)[C@H](C)NC(=O)[C@H](CC(N)=O)NC(=O)[C@H](CC(=O)O)NC(=O)CNC(=O)[C@@H]1CCCN1C(=O)[C@H](Cc1ccc(O)cc1)NC(=O)[C@H](CCCCNC(=O)COCCOCCNC(=O)COCCOCCNC(=O)CC[C@H](NC(=O)CCCCCCCCCCCCCCCCC(=O)O)C(=O)O)NC(=O)[C@@H]1CCCN1C(=O)[C@H](CCC(=O)O)NC(=O)[C@H](CC(C)C)NC(=O)[C@@H]1CCCN1)[C@@H](C)O)C(=O)N[C@@H](CC(N)=O)C(=O)N[C@@H](CCSC)C(=O)N[C@@H](CC(C)C)C(=O)N[C@H](C(=O)N[C@@H](CCCNC(=N)N)C(=O)N1CCC[C@H]1C(=O)N[C@@H](CCCNC(=N)N)C(=O)N[C@@H](Cc1ccc(O)cc1)C(N)=O)[C@@H](C)O` [Compound AB] yielded a half-life of 44 h. `CC[C@H](C)[C@H](NC(=O)[C@H](Cc1ccc(O)cc1)NC(=O)[C@H](CCCNC(=N)N)NC(=O)[C@H](CCCNC(=N)N)NC(=O)[C@H](CC(C)C)NC(=O)[C@H](CC(=O)O)NC(=O)[C@H](CCCCNC(=O)COCCOCCNC(=O)COCCOCCNC(=O)CC[C@H](NC(=O)CCCCCCCCCCCCCCCCC(=O)O)C(=O)O)NC(=O)[C@H](C)NC(=O)[C@H](Cc1ccc(O)cc1)NC(=O)[C@H](CCC(N)=O)NC(=O)[C@H](C)NC(=O)[C@H](CCSC)NC(=O)[C@H](CCC(N)=O)NC(=O)[C@H](CCC(=O)O)NC(=O)[C@@H]1CCCN1C(=O)[C@@H](NC(=O)[C@H](C)NC(=O)[C@H](CC(N)=O)NC(=O)[C@H](CC(=O)O)NC(=O)CNC(=O)[C@@H]1CCCN1C(=O)[C@H](Cc1ccc(O)cc1)NC(=O)[C@@H](NC(=O)[C@@H]1CCCN1C(=O)[C@H](CCC(=O)O)NC(=O)[C@H](CC(C)C)NC(=O)[C@@H]1CCCN1)C(C)C)[C@@H](C)O)C(=O)N[C@@H](CC(N)=O)C(=O)N[C@@H](CCSC)C(=O)N[C@@H](CC(C)C)C(=O)N[C@H](C(=O)N[C@@H](CCCNC(=N)N)C(=O)N1CCC[C@H]1C(=O)N[C@@H](CCCNC(=N)N)C(=O)N[C@@H](Cc1ccc(O)cc1)C(N)=O)[C@@H](C)O` [Compound L] (H-PLEPVYPGDNATPEQMAQYAK([AEEA-AEEA-γGlu-C18 diacid])DLRRYINMLTRPRY-NH2; N-terminus and C-terminus assumed) showed a half-life of 83 h. Compound `CC[C@H](C)[C@H](NC(=O)[C@H](Cc1ccc(O)cc1)NC(=O)[C@H](CCCNC(=N)N)NC(=O)[C@H](CCCNC(=N)N)NC(=O)[C@H](CC(C)C)NC(=O)[C@H](CC(=O)O)NC(=O)[C@H](C)NC(=O)[C@H](C)NC(=O)[C@H](CCCCNC(=O)COCCOCCNC(=O)COCCOCCNC(=O)CC[C@H](NC(=O)CCCCCCCCCCCCCCCCC(=O)O)C(=O)O)NC(=O)[C@H](CCC(N)=O)NC(=O)[C@H](C)NC(=O)[C@H](CCSC)NC(=O)[C@H](CCC(N)=O)NC(=O)[C@H](CCC(=O)O)NC(=O)[C@@H]1CCCN1C(=O)[C@@H](NC(=O)[C@H](C)NC(=O)[C@H](CC(N)=O)NC(=O)[C@H](CC(=O)O)NC(=O)CNC(=O)[C@@H]1CCCN1C(=O)[C@H](Cc1ccc(O)cc1)NC(=O)[C@@H](NC(=O)[C@@H]1CCCN1C(=O)[C@H](CCC(=O)O)NC(=O)[C@@H](N)CC(C)C)C(C)C)[C@@H](C)O)C(=O)N[C@@H](CC(N)=O)C(=O)N[C@@H](CCSC)C(=O)N[C@@H](CC(C)C)C(=O)N[C@H](C(=O)N[C@@H](CCCNC(=N)N)C(=O)N1CCC[C@H]1C(=O)N[C@@H](CCCNC(=N)N)C(=O)N[C@@H](Cc1ccc(O)cc1)C(N)=O)[C@@H](C)O` [Compound AV] (H-LEPVYPGDNATPEQMAQK([AEEA-AEEA-γGlu-C18 diacid])AADLRRYINMLTRPRY-NH2; N-terminus and C-terminus assumed) has a half-life of 28 h. Work on `CC[C@H](C)[C@H](NC(=O)[C@H](Cc1ccc(O)cc1)NC(=O)[C@H](CCCNC(=N)N)NC(=O)[C@H](CCCNC(=N)N)NC(=O)[C@H](CC(C)C)NC(=O)[C@H](CC(=O)O)NC(=O)[C@H](C)NC(=O)[C@H](C)NC(=O)[C@H](Cc1ccc(O)cc1)NC(=O)[C@H](CCC(N)=O)NC(=O)[C@H](C)NC(=O)[C@H](CCSC)NC(=O)[C@H](CCC(N)=O)NC(=O)[C@H](CCCCNC(=O)COCCOCCNC(=O)COCCOCCNC(=O)CC[C@H](NC(=O)CCCCCCCCCCCCCCCCC(=O)O)C(=O)O)NC(=O)[C@@H]1CCCN1C(=O)[C@@H](NC(=O)[C@H](C)NC(=O)[C@H](CC(N)=O)NC(=O)[C@H](CC(=O)O)NC(=O)CNC(=O)[C@@H]1CCCN1C(=O)[C@H](Cc1ccc(O)cc1)NC(=O)[C@@H](NC(=O)[C@@H]1CCCN1C(=O)[C@H](CCC(=O)O)NC(=O)[C@@H](N)CC(C)C)C(C)C)[C@@H](C)O)C(=O)N[C@@H](CC(N)=O)C(=O)N[C@@H](CCSC)C(=O)N[C@@H](CC(C)C)C(=O)N[C@H](C(=O)N[C@@H](CCCNC(=N)N)C(=O)N1CCC[C@H]1C(=O)N[C@@H](CCCNC(=N)N)C(=O)N[C@@H](Cc1ccc(O)cc1)C(N)=O)[C@@H](C)O` [Compound BA] (H-LEPVYPGDNATPK([AEEA-AEEA-γGlu-C18 diacid])QMAQYAADLRRYINMLTRPRY-NH2; N-terminus and C-terminus assumed) yielded a half-life of 24 h. `CC[C@H](C)[C@H](NC(=O)[C@H](Cc1ccc(O)cc1)NC(=O)[C@H](CCCNC(=N)N)NC(=O)[C@H](CCCNC(=N)N)NC(=O)[C@H](CC(C)C)NC(=O)[C@H](CC(=O)O)NC(=O)[C@H](C)NC(=O)[C@H](C)NC(=O)[C@H](Cc1ccc(O)cc1)NC(=O)[C@H](CCC(N)=O)NC(=O)[C@H](C)NC(=O)[C@H](CCSC)NC(=O)[C@H](CCC(N)=O)NC(=O)[C@H](CCC(=O)O)NC(=O)[C@@H]1CCCN1C(=O)[C@@H](NC(=O)[C@H](C)NC(=O)[C@H](CC(N)=O)NC(=O)[C@H](CC(=O)O)NC(=O)CNC(=O)[C@@H]1CCCN1C(=O)[C@H](Cc1ccc(O)cc1)NC(=O)[C@@H](NC(=O)[C@H](CCCCNC(=O)COCCOCCNC(=O)COCCOCCNC(=O)CC[C@H](NC(=O)CCCCCCCCCCCCCCCCC(=O)O)C(=O)O)NC(=O)[C@H](CCC(=O)O)NC(=O)[C@@H](N)CC(C)C)C(C)C)[C@@H](C)O)C(=O)N[C@@H](CC(N)=O)C(=O)N[C@@H](CCSC)C(=O)N[C@@H](CC(C)C)C(=O)N[C@H](C(=O)N[C@@H](CCCNC(=N)N)C(=O)N1CCC[C@H]1C(=O)N[C@@H](CCCNC(=N)N)C(=O)N[C@@H](Cc1ccc(O)cc1)C(N)=O)[C@@H](C)O` [Compound BK] showed a half-life of 54 h.
